Laboratory results reported in US11718604B2, “4-amino-6-(1,3-benzodioxole)picolinates and their use as herbicides” (Dow AgroSciences LLC, priority 2018, dated 2023).

Columns and labels:
Format in all cases: in vivo
[1] = tested on: CYPES: yellow nutsedge (Cyperus esculentus); test: Post-emergent herbicidal test, yellow nutsedge; settings: post-emergence, 336 h, 14 days after application, read-out: Visual Growth Reduction (%) 14 Days After Application CYPES; for pest or weed control at 17.5 g/ha: 17.5 g ai/ha; for pest or weed control at 35 g/ha: 35 g ai/ha; for pest or weed control at 70 g/ha: 70 g ai/ha; for pest or weed control at 140 g/ha: 140 g ai/ha
Summary of the method: (§1)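 Seedlings grown in greenhouse (23-29 °C day, 22-28 °C night, ~15 h photoperiod) to first or second true leaf stage were sprayed overhead at 187 L/ha with compound in acetone/DMSO/water/isopropanol/crop oil/Triton X-155, at the high rate and ½× to 1/16× dilutions. Injury scored visually after 14 d, 0 (none) to 100% (complete kill), relative to untreated plants.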

[2] = tested on: ABUTH: velvetleaf (Abutilon theophrasti); test: Post-emergent herbicidal test, velvetleaf; settings: post-emergence, 336 h, 14 days after application, read-out: Visual Growth Reduction (%) 14 Days After Application ABUTH; for pest or weed control at 17.5 g/ha: 17.5 g ai/ha; for pest or weed control at 35 g/ha: 35 g ai/ha; for pest or weed control at 70 g/ha: 70 g ai/ha; for pest or weed control at 140 g/ha: 140 g ai/ha
Summary of the method: as §1

[3] = tested on: SETFA: giant foxtail (Setaria faberi); test: Post-emergent herbicidal test, giant foxtail; settings: post-emergence, 336 h, 14 days after application, read-out: Visual Growth Reduction (%) 14 Days After Application SETFA; for pest or weed control at 17.5 g/ha: 17.5 g ai/ha; for pest or weed control at 35 g/ha: 35 g ai/ha; for pest or weed control at 70 g/ha: 70 g ai/ha; for pest or weed control at 140 g/ha: 140 g ai/ha
Summary of the method: as §1

[4] = tested on: VIOTR: wild violet (Viola tricolor); test: Post-emergent herbicidal test, wild violet; settings: post-emergence, 336 h, 14 days after application, read-out: Visual Growth Reduction (%) 14 Days After Application VIOTR; for pest or weed control at 17.5 g/ha: 17.5 g ai/ha; for pest or weed control at 35 g/ha: 35 g ai/ha; for pest or weed control at 70 g/ha: 70 g ai/ha; for pest or weed control at 140 g/ha: 140 g ai/ha
Summary of the method: as §1

[5] = tested on: CIRAR: Canada thistle (Cirsium arvense); test: Post-emergent herbicidal test, Canada thistle; settings: post-emergence, 336 h, 14 days after application, read-out: Visual Growth Reduction (%) 14 Days After Application CIRAR; for pest or weed control at 17.5 g/ha: 17.5 g ai/ha; for pest or weed control at 35 g/ha: 35 g ai/ha; for pest or weed control at 70 g/ha: 70 g ai/ha; for pest or weed control at 140 g/ha: 140 g ai/ha
Summary of the method: as §1

[6] = tested on: BRSNN: oilseed rape, canola (Brassica napus); test: Post-emergent herbicidal test, oilseed rape; settings: post-emergence, 336 h, 14 days after application, read-out: Visual Growth Reduction (%) 14 Days After Application BRSNN; for pest or weed control at 17.5 g/ha: 17.5 g ai/ha; for pest or weed control at 35 g/ha: 35 g ai/ha; for pest or weed control at 70 g/ha: 70 g ai/ha; for pest or weed control at 140 g/ha: 140 g ai/ha
Summary of the method: as §1

[7] = tested on: EPHHL: wild poinsettia (Euphorbia heterophylla); test: Post-emergent herbicidal test, wild poinsettia; settings: post-emergence, 336 h, 14 days after application, read-out: Visual Growth Reduction (%) 14 Days After Application EPHHL; for pest or weed control at 17.5 g/ha: 17.5 g ai/ha; for pest or weed control at 35 g/ha: 35 g ai/ha; for pest or weed control at 70 g/ha: 70 g ai/ha; for pest or weed control at 140 g/ha: 140 g ai/ha
Summary of the method: as §1

[8] = tested on: DIGSA: large crabgrass (Digitaria sanguinalis); test: Post-emergent herbicidal test, large crabgrass; settings: post-emergence, 336 h, 14 days after application, read-out: Visual Growth Reduction (%) 14 Days After Application DIGSA; for pest or weed control at 17.5 g/ha: 17.5 g ai/ha; for pest or weed control at 35 g/ha: 35 g ai/ha; for pest or weed control at 70 g/ha: 70 g ai/ha; for pest or weed control at 140 g/ha: 140 g ai/ha
Summary of the method: as §1

[9] = tested on: ECHCG: barnyardgrass (Echinochloa crus-galli); test: Post-emergent herbicidal test, barnyardgrass; settings: post-emergence, 336 h, 14 days after application, read-out: Visual Growth Reduction (%) 14 Days After Application ECHCG; for pest or weed control at 17.5 g/ha: 17.5 g ai/ha; for pest or weed control at 35 g/ha: 35 g ai/ha; for pest or weed control at 70 g/ha: 70 g ai/ha; for pest or weed control at 140 g/ha: 140 g ai/ha
Summary of the method: as §1

[10] = tested on: SORVU: shattercane (Sorghum bicolor); test: Post-emergent herbicidal test, shattercane; settings: post-emergence, 336 h, 14 days after application, read-out: Visual Growth Reduction (%) 14 Days After Application SORVU; for pest or weed control at 17.5 g/ha: 17.5 g ai/ha; for pest or weed control at 35 g/ha: 35 g ai/ha; for pest or weed control at 70 g/ha: 70 g ai/ha; for pest or weed control at 140 g/ha: 140 g ai/ha
Summary of the method: as §1

[11] = tested on: IPOHE: ivyleaf morningglory (Ipomoea hederacea); test: Post-emergent herbicidal test, ivyleaf morningglory; settings: post-emergence, 336 h, 14 days after application, read-out: Visual Growth Reduction (%) 14 Days After Application IPOHE; for pest or weed control at 17.5 g/ha: 17.5 g ai/ha; for pest or weed control at 35 g/ha: 35 g ai/ha; for pest or weed control at 70 g/ha: 70 g ai/ha; for pest or weed control at 140 g/ha: 140 g ai/ha
Summary of the method: as §1

SMILES: Nc1c(F)c(-c2ccc(Cl)c3c2OCO3)nc(C(=O)OCc2ccccc2)c1Cl [Compound 1B]
- pest or weed control at 17.5 g/ha [1]: 75%
- pest or weed control at 35 g/ha [1]: 85%
- pest or weed control at 70 g/ha [1]: 85%
- pest or weed control at 140 g/ha [1]: 90%
- pest or weed control at 17.5 g/ha [2]: 90%
- pest or weed control at 35 g/ha [2]: 95%
- pest or weed control at 70 g/ha [2]: 100%
- pest or weed control at 140 g/ha [2]: 100%
- pest or weed control at 17.5 g/ha [3]: 0%
- pest or weed control at 35 g/ha [3]: 0%
- pest or weed control at 70 g/ha [3]: 20%
- pest or weed control at 140 g/ha [3]: 50%
- pest or weed control at 17.5 g/ha [4]: 40%
- pest or weed control at 35 g/ha [4]: 75%
- pest or weed control at 70 g/ha [4]: 60%
- pest or weed control at 140 g/ha [4]: 75%
- pest or weed control at 17.5 g/ha [5]: 75%
- pest or weed control at 35 g/ha [5]: 80%
- pest or weed control at 70 g/ha [5]: 85%
- pest or weed control at 140 g/ha [5]: 90%
- pest or weed control at 17.5 g/ha [6]: 95%
- pest or weed control at 35 g/ha [6]: 100%
- pest or weed control at 70 g/ha [6]: 100%
- pest or weed control at 140 g/ha [6]: 100%
- pest or weed control at 17.5 g/ha [7]: 10%
- pest or weed control at 35 g/ha [7]: 10%
- pest or weed control at 70 g/ha [7]: 15%
- pest or weed control at 140 g/ha [7]: 10%
- pest or weed control at 17.5 g/ha [8]: 0%
- pest or weed control at 35 g/ha [8]: 0%
- pest or weed control at 70 g/ha [8]: 20%
- pest or weed control at 140 g/ha [8]: 50%
- pest or weed control at 17.5 g/ha [9]: 0%
- pest or weed control at 35 g/ha [9]: 0%
- pest or weed control at 70 g/ha [9]: 0%
- pest or weed control at 140 g/ha [9]: 0%
- pest or weed control at 17.5 g/ha [10]: 25%
- pest or weed control at 35 g/ha [10]: 50%
- pest or weed control at 70 g/ha [10]: 60%
- pest or weed control at 140 g/ha [10]: 85%
- pest or weed control at 17.5 g/ha [11]: 0%
- pest or weed control at 35 g/ha [11]: 0%
- pest or weed control at 70 g/ha [11]: 0%
- pest or weed control at 140 g/ha [11]: 10%

SMILES: Nc1c(F)c(-c2ccc(I)c3c2OC(F)(F)O3)nc(C(=O)O)c1Cl [Compound 12]
- pest or weed control at 17.5 g/ha [1]: 0%
- pest or weed control at 35 g/ha [1]: 0%
- pest or weed control at 70 g/ha [1]: 0%
- pest or weed control at 140 g/ha [1]: 0%
- pest or weed control at 17.5 g/ha [2]: 0%
- pest or weed control at 35 g/ha [2]: 0%
- pest or weed control at 70 g/ha [2]: 70%
- pest or weed control at 140 g/ha [2]: 80%
- pest or weed control at 17.5 g/ha [3]: 0%
- pest or weed control at 35 g/ha [3]: 0%
- pest or weed control at 70 g/ha [3]: 0%
- pest or weed control at 140 g/ha [3]: 0%
- pest or weed control at 17.5 g/ha [4]: 0%
- pest or weed control at 35 g/ha [4]: 0%
- pest or weed control at 70 g/ha [4]: 0%
- pest or weed control at 140 g/ha [4]: 0%
- pest or weed control at 17.5 g/ha [5]: 65%
- pest or weed control at 35 g/ha [5]: 80%
- pest or weed control at 70 g/ha [5]: 85%
- pest or weed control at 140 g/ha [5]: 85%
- pest or weed control at 17.5 g/ha [6]: 70%
- pest or weed control at 35 g/ha [6]: 80%
- pest or weed control at 70 g/ha [6]: 90%
- pest or weed control at 140 g/ha [6]: 100%
- pest or weed control at 17.5 g/ha [7]: 0%
- pest or weed control at 35 g/ha [7]: 0%
- pest or weed control at 70 g/ha [7]: 0%
- pest or weed control at 140 g/ha [7]: 0%
- pest or weed control at 17.5 g/ha [8]: 0%
- pest or weed control at 35 g/ha [8]: 0%
- pest or weed control at 70 g/ha [8]: 0%
- pest or weed control at 140 g/ha [8]: 0%
- pest or weed control at 17.5 g/ha [9]: 0%
- pest or weed control at 35 g/ha [9]: 0%
- pest or weed control at 70 g/ha [9]: 0%
- pest or weed control at 140 g/ha [9]: 0%
- pest or weed control at 17.5 g/ha [10]: 0%
- pest or weed control at 35 g/ha [10]: 0%
- pest or weed control at 70 g/ha [10]: 0%
- pest or weed control at 140 g/ha [10]: 0%
- pest or weed control at 17.5 g/ha [11]: 0%
- pest or weed control at 35 g/ha [11]: 0%
- pest or weed control at 70 g/ha [11]: 0%
- pest or weed control at 140 g/ha [11]: 0%
